Measurements: patent US7790885B2, “Process for preparing phenoxypyridine derivatives” (Eisai R&D Management Co., Ltd., priority 2006, dated 2010)

Key:
[1] = test system: Human gastric cancer cells (MKN-45); experiment: Inhibitory activity against the proliferation of human gastric cancer cells (MKN-45); assay type: cell-based; conditions: 72 h, read-out: IC50 (concentration necessary to inhibit the cell proliferation by 50%), MKN-45 cells, 1% FBS-containing RPMI1640, 3 days, Cell Counting Kit-8
Method: Human gastric cancer cells (MKN-45) were suspended in a 1% FBS-containing RPMI1640 medium (purchased from Sigma). The cell suspension (1×10^4 cells/ml) was added in a 96-well plate for cell culture (purchased from NUNC, Production No. 167008) at 0.1 ml/well, and then cultured in a 5% CO2 incubator (37° C.) overnight. After the culture, each well was supplied with 0.1 ml of a test substance diluted with a 1% FBS-containing RPMI1640 medium, followed by culturing in a 5% CO2 incubator (37° C.) for 3 days. After the culture, each well was supplied with 10 μl of Cell Counting Kit-8 (purchased from DOJINDO, Production No. 343-07623), followed by incubation in a 5% CO2 incubator (37° C.) for about 1.5 hrs. After the incubation, using the Plate Reader MTP-500 (Corona Electric), the absorbance of each well was determined at a measurement wavelength of 450 nm and a reference wavelength of 660 nm.

HGFR [2] = molecular target: T1, HGFR (Homo sapiens, UniProt P08581); experiment: Inhibitory activity against the HGFR autophosphorylation using ELISA; assay type: cell-based; set-up: endogenous in cells; host or cells: MKN-45 human gastric cancer cells; conditions: MKN-45 cells, test substance 1 hr, cell extract
Method: Human gastric cancer cells (MKN-45) were suspended in a 1% FBS-containing RPMI1640 medium (purchased from Sigma). […] After the culture, from each well was removed the supernatant, followed by adding 0.05 ml of a 1% FBS-containing RPMI1640 medium. Then, the well was supplied with 0.05 ml of the test substance dissolved in dimethyl sulfoxide (diluted with a 1% FBS-containing RPMI1640 medium), followed by culturing in a 5% CO2 incubator (37° C.) for 1 hr. From each well was removed the supernatant, and each well was washed with 150 μl of PBS, followed by adding 100 μl of a lysis buffer (50 mM Hepes (pH 7.4), 150 mM NaCl, 10% (v/v) glycerol, 1% Triton X-100, 1.5 mM MgCl2, 1 mM EDTA (pH 8.0), 100 mM NaF, 1 mM PMSF, 10 μg/ml Aprotinin, 50 μg/ml Leupeptin, 1 μg/ml Pepstatin A and 1 mM Na3VO4). The plate was shaken at 4° C. for 1 hr to prepare the cell extract.
To a 96-well plate for ELISA (purchased from COSTAR, Production No. 3369) was added 50 μl of 60 mM bicarbonate buffer (pH 9.6) containing 50 μg/ml of an anti-phosphotyrosine antibody (PY20, purchased from Transduction Laboratory, Production No. P-11120). The plate was incubated at 4° C. overnight.
Each well of the plate prepared in 2. was washed three times with 200 μl of PBS, and supplied with 150 μl of 3% BSA/PBS, followed by incubating at room temperature for 2 hrs. Each well was washed three times with 200 μl of PBS, and supplied with 50 μl of the above cell extract, followed by incubating at 4° C. overnight. After the incubation, each well was washed three times with 250 μl of a washing solution (0.1% BSA, 20 mM Tris-HCl (pH 7.6), 137 mM NaCl, and 0.05% Tween-20), and supplied with 70 μl of anti-HGFR antibody (h-Met(C-12), purchased from Santa Cruz, Production No. sc-10) 2,000-fold diluted with a reaction solution (1% BSA, 20 mM Tris-HCl (pH 7.6), 137 mM NaCl and 0.05% Tween-20), followed by incubating at room temperature for 1 hr. The well was washed three times with 250 μl of the washing solution, and supplied with 70 μl of peroxidase-labelled anti-rabbit IgG antibody (purchased from Cell Signaling, Production No. 7074) 2,000-fold diluted with the reaction solution, followed by incubating at room temperature for 1 hr. […] Each well was supplied with 70 μl of 1 M phosphoric acid, and using the Plate Reader MTP-500 (Corona Electric), the absorbance of the well was instantly determined at a measurement wavelength of 450 nm. While defining the absorbance of a well supplied with the cell extract having no test substance as 100% HGFR autophosphorylation activity, and the absorbance of a well supplied with 50 μl of the lysis buffer as 0% HGFR autophosphorylation activity, the HGFR autophosphorylation activity (%) was calculated for each well.
Target sequence in this assay (P08581 25-1390): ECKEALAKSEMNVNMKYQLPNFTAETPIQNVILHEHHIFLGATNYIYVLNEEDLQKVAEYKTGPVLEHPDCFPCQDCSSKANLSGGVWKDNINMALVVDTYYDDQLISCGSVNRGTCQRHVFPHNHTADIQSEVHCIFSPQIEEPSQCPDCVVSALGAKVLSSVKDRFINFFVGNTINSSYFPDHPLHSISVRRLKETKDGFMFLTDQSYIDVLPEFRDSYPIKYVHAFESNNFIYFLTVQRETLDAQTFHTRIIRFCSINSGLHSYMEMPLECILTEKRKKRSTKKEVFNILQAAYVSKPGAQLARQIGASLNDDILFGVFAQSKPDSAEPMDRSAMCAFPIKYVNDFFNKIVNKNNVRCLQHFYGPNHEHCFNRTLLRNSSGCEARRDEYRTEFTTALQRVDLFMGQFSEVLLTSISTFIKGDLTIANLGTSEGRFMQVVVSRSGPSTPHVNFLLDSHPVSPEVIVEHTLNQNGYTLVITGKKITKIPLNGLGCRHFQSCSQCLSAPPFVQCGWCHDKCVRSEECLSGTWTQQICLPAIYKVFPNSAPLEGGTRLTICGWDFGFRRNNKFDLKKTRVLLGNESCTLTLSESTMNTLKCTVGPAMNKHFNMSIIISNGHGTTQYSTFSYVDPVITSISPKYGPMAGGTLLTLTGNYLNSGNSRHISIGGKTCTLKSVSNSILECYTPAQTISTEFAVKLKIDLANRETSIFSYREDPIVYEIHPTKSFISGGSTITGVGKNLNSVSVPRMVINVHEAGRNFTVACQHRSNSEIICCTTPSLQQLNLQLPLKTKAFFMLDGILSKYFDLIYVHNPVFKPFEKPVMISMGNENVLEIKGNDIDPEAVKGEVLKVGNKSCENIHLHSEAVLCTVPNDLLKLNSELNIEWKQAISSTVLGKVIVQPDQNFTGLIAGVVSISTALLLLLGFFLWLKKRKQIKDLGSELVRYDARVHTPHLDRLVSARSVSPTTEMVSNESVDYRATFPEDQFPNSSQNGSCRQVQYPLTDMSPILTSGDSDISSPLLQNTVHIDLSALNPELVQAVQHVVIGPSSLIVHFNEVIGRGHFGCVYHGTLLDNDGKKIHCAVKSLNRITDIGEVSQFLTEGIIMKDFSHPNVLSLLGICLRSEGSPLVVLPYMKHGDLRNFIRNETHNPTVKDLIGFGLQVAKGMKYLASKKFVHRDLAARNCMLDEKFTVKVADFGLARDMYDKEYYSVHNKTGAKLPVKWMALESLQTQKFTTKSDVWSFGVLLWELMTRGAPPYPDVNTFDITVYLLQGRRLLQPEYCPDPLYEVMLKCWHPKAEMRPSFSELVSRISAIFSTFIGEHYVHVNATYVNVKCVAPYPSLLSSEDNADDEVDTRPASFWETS

HGFR [3] = molecular target: T1, HGFR; experiment: Inhibitory activity against HGFR tyrosine kinase activity (HTRF); assay type: biochemical; set-up: His6-HGFR, the HGFR cytoplasmic domain fused with six histidine at the N terminus; made in house; host or cells: Sf9 insect cells (baculovirus, pFastBac-HT); conditions: His6-HGFR cytoplasmic domain, biotin-poly(GT) substrate, ATP, 30° C. for 10 min
Excerpt: The DNA fragment was isolated from the human placental cDNA library (purchased from Clontech) by PCR (TaKaRa Ex Taq™ Kit, purchased from TaKaRa) using two kinds of primers (SEQ ID NO: 1,5′-[…]-3′ and SEQ ID NO: 2,5′-[…]-3′, purchased from Invitrogen). The DNA fragment was cloned into a baculovirus transplace vector (pFastBac™-HT (purchased from GIBCO BRL)) to produce a recombinant construct. […] EGFR was purchased from Sigma (Production No. E-2645).
To the suspension of Sf9 cells (3×10^8 cells) in SF-900II medium (purchased from Invitrogen) containing 2% FBS was added a solution of HGFR transfected baculovirus above (4 ml), followed by a shaking culture at 27° C. for 48 hrs. The cells infected with the HGFR transfected baculovirus were centrifuged at 1,000 rpm, 4° C. for 5 min to remove the supernatant. The precipitated infected cells were suspended in 80 ml of ice-cold PBS, and centrifuged at 1,000 rpm, 4° C. for 5 min to remove the supernatant. The precipitated infected cells were suspended in 40 ml of ice-cold Lysis Buffer (50 mM Tris-HCl (pH 8.5), 5 mM 2-mercaptoethanol, 100 mM KCl, 1 mM PMSF and 1% (v/v) NP-40). The suspension was centrifuged at 12,000 rpm, 4° C. for 30 min to provide a supernatant.
The supernatant was loaded onto an Ni-NTA agarose column (3 ml, purchased from Qiagen) equilibrated with 30 ml of Buffer A (20 mM Tris-HCl (pH 8.5), 5 mM 2-mercaptoethanol, 500 mM KCl, 20 mM imidazole and 10% (v/v) glycerol). The column was washed with 30 ml of Buffer A, 6 ml of Buffer B (20 mM Tris-HCl (pH 8.5), 5 mM 2-mercaptoethanol, 1 M KCl, and 10% (v/v) glycerol) and 6 ml of Buffer A in this order. Then, the column was eluted with 6 ml of Buffer C (20 mM Tris-HCl (pH 8.5), 5 mM 2-mercaptoethanol, 100 mM KCl, 100 mM imidazole, and 10% (v/v) glycerol) to provide a fraction. The fraction was entrapped in a dialysis membrane (purchased from Spectrum Laboratories), dialyzed at 4° C. overnight with 1 L of dialysis buffer (20 mM Tris-HCl (pH 7.5), 10% (v/v) glycerol, 1 mM dithiothreitol, 0.1 mM Na3VO4 and 0.1 mM EGTA), and stored at −80° C. until used. […] The VEGFR2 cytoplasmic domain, the FGFR1 cytoplasmic domain, and the PDGFRβ cytoplasmic domain were fused with six histidine at the N terminus by the similar method to produce respective recombinant proteins (His6-VEGFR2, His6-FGFR1, and His6-PDGFRβ).
The tyrosine-phosphorylated biotin-poly(GT) was detected using the Homogenous Time-Resolved Fluorescence (HTRF) method (Analytical Biochemistry, 269, 94-104, 1999).
Target sequence in this assay (P08581 956-1390 limits assumed): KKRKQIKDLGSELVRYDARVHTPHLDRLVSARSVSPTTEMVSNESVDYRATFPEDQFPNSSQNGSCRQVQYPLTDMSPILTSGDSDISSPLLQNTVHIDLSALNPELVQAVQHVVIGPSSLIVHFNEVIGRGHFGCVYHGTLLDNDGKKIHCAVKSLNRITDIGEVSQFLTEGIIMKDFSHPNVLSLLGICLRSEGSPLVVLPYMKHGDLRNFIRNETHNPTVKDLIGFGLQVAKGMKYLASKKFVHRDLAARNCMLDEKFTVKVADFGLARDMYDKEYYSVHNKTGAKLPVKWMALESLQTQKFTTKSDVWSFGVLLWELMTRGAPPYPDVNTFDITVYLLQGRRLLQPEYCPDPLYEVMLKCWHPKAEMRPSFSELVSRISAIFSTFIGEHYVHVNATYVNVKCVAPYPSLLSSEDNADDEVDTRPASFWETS

Row | IC50 [1] | IC50 (HGFR [2]) | IC50 (HGFR [3]) | SMILES
1 | 4.9 nM | 11 nM | 49 nM | CN1CCC(N(C)C(=O)Nc2cc(Oc3cc(F)c(NC(=O)C4(C(=O)Nc5ccc(F)cc5)CC4)cc3F)ccn2)CC1 [Example 19]
2 | 17 nM | – | – | CN1CCN(C2CCN(C(=O)Nc3cc(Oc4ccc(NC(=O)C5(C(=O)Nc6ccc(F)cc6)CC5)c(F)c4)ccn3)CC2)CC1 [Example 9, N-(2-Fluoro-4-{[2-({[4-(4-methylpiperazin-1-yl)piperidin-1-yl]carbonyl}amino)pyridin-4-yl]oxy}phenyl)-N′-(4-fluorophenyl)cyclopropane-1,1-dicarboxamide]
3 | 5 nM | 8.4 nM | 4 nM | O=C(Nc1cc(Oc2cc(F)c(NC(=O)C3(C(=O)Nc4ccc(F)cc4)CC3)cc2F)ccn1)N1CC(O)C1 [Example 16, N-{2,5-Difluoro-4-[(2-{[(3-hydroxyazetidin-1-yl)carbonyl]amino}pyridin-4-yl)oxy]phenyl}-N′-(4-fluorophenyl)cyclopropane-1,1-dicarboxamide]
4 | 2.4 nM | 4.5 nM | 16 nM | O=C(Nc1cc(Oc2cc(F)c(NC(=O)C3(C(=O)Nc4ccc(F)cc4)CC3)cc2F)ccn1)N1CC[C@H](O)C1 [Example 22, N-{2,5-Difluoro-4-[(2-{[((S)-3-hydroxypyrrolidin-1-yl)carbonyl]amino}pyridin-4-yl)oxy]phenyl}-N′-(4-fluorophenyl)cyclopropane-1,1-dicarboxamide]
5 | 2.2 nM | 3.4 nM | 10 nM | O=C(Nc1cc(Oc2cc(F)c(NC(=O)C3(C(=O)Nc4ccc(F)cc4)CC3)cc2F)ccn1)N1CC[C@@H](O)C1 [Example 25, N-{2,5-Difluoro-4-[(2-{[((R)-3-hydroxypyrrolidin-1-yl)carbonyl]amino}pyridin-4-yl)oxy]phenyl}-N′-(4-fluorophenyl)cyclopropane-1,1-dicarboxamide]
